Assay [1] addresses T1, bradykinin receptors in Rat Uterus (Rattus norvegicus, UniProt P25023).
T1 construct: describes the Rat Uterus assay used to analyze the present compounds; from tissue; host or cells: isolated rat uterus
T1 sequence (P25023 1-396): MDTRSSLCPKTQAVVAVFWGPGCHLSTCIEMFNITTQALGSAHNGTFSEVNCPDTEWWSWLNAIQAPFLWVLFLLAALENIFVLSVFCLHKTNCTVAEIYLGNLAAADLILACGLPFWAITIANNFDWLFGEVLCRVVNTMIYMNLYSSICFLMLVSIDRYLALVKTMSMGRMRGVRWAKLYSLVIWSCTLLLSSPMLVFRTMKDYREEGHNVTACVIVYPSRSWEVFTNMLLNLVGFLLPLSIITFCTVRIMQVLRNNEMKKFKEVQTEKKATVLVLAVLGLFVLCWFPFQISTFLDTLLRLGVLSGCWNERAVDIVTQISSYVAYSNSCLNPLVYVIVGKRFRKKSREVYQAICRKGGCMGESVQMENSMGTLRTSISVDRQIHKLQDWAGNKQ
As to the kind of experiment: Rat Uterus functional assay. In kind it is cell-based. The source says:
4. Rat Uterus functional assay Trautshold, Handbook of Expt. Pharmacol. […] The Trautshold method was used without changes to the parameters. U.S. Pat. No. 4,693,993, at Column 14, line 10 gives a general description of data analysis for this assay. In this table, I=inhibitor, and numbers in parenthesis are pA2. Agonist activity are given as percent BK activity.

In assay [2] the target is T2, bradykinin receptors in Guinea Pig Ileum (Cavia porcellus, UniProt O70526).
T2 construct: describes the Guinea Pig Ileum assay used to analyze the present compounds; from tissue; host or cells: isolated guinea pig ileum
T2 sequence (O70526 1-372): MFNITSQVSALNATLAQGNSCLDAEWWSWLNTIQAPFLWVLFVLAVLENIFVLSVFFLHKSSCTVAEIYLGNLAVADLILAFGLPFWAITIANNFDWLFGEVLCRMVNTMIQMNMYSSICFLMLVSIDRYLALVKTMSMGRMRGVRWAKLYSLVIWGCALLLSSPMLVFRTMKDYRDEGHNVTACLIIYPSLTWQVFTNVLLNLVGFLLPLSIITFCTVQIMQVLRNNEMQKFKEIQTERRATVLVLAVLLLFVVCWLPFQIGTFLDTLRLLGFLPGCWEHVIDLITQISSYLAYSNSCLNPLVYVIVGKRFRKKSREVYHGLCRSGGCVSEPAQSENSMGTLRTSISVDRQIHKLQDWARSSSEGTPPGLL
As to the kind of experiment: Guinea Pig Ileum functional assay. In kind it is cell-based. The source says:
5. Guinea Pig Ileum functional assay
Trautshold, Handbook of Expt. Pharmacol. Vol 25, Springer Verlag pp 53-55 (1970) describes the Guinea Pig Ileum assay used to analyze the present compounds. The Trautshold method was used without changes to the parameters. U.S. Pat. No. 4,693,993, at Column 14, line 10 gives a general description of data analysis for this assay.
In this table, I=inhibitor, and numbers in parenthesis are pA2. Agonist activity are given as percent BK activity.

The mark [3] stands for this setting: number in parenthesis is pA2, read-out: Ileum, pA2 (I=inhibitor) (converted).
[4] abbreviates: Ileum, pA2 (I=inhibitor), number in parenthesis is pA2.

Read-outs that look alike come from different tables or passages of the source.

On to `N=C(N)NCCC[C@@H](N)C(=O)N[C@@H](CCCNC(=N)N)C(=O)N1CCC[C@H]1C(=O)N1C[C@H](O)C[C@H]1C(=O)NCC(=O)N[C@H](C(=O)N[C@@H](CO)C(=O)N[C@H](Cc1c(F)c(F)c(F)c(F)c1F)C(=O)N1[C@H](C(=O)N[C@@H](CCCNC(=N)N)C(=O)O)C[C@@H]2CCCC[C@@H]21)C1Cc2ccccc2C1` [Compound B10044, DArg-Arg-Pro-Hyp-Gly-Igl-Ser-Df5f-Oic-Arg], for which the Kb in assay [1] is 7.94 nM; in assay [2] (setting [3]), 3.98 nM.

As to `N=C(N)NCCC[C@H](NC(=O)[C@H](CCCCN)NC(=O)[C@@H](N)CCCCN)C(=O)N1CCC[C@H]1C(=O)N1C[C@H](O)C[C@H]1C(=O)NCC(=O)N[C@H](C(=O)N[C@@H](CO)C(=O)N[C@H](Cc1c(F)c(F)c(F)c(F)c1F)C(=O)N[C@H](C(=O)O)C1CCCCC1)C1Cc2ccccc2C1` [Compound B10146, Lys-Lys-Arg-Pro-Hyp-Gly-Igl-Ser-Df5f-Chg], the “Uterus, activity in words” value in assay [1] (rat uterus, symbol without number) is given as “Ag”. Moreover, in assay [2] (setting [4]), the Kb is 1260 nM.

Consider `N=C(N)NCCC[C@@H](N)C(=O)N[C@@H](CCCNC(=N)N)C(=O)N1CCC[C@H]1C(=O)N[C@@H](C(=O)NCC(=O)N[C@H](C(=O)N[C@@H](CO)C(=O)N[C@H](Cc1c(F)c(F)c(F)c(F)c1F)C(=O)N1[C@H](C(=O)N[C@@H](CCCNC(=N)N)C(=O)O)C[C@@H]2CCCC[C@@H]21)C1Cc2ccccc2C1)C1Cc2ccccc2C1` [Compound B10216, DArg-Arg-Pro-DIgl-Gly-Igl-Ser-Df5f-Oic-Arg], for which the values for the Kb in assay [1] and in assay [2] (setting [3]) were 39.8 nM and 158 nM, respectively.

For the compound `N=C(N)NCCC[C@@H](N)C(=O)N[C@@H](CCCNC(=N)N)C(=O)N1CCC[C@H]1C(=O)N1C[C@H](O)C[C@H]1C(=O)NCC(=O)N[C@@H](Cc1cccs1)C(=O)N[C@@H](CO)C(=O)N1Cc2ccccc2C[C@@H]1C(=O)N[C@@H](Cc1c(F)c(F)c(F)c(F)c1F)C(=O)N[C@@H](CCCNC(=N)N)C(=O)O` [Compound B10168, DArg-Arg-Pro-Hyp-Gly-Thi-Ser-DTic-f5f-Arg], in assay [1], the “Uterus, agonist activity as percent BK activity” value (from here on “Uterus … as percent BK activity”) is 4%. Besides, the Kb in assay [2] (setting [3]) was 3160 nM.

Regarding `N=C(N)NCCC[C@@H](N)C(=O)N[C@@H](CCCNC(=N)N)C(=O)N1CCC[C@H]1C(=O)N1C[C@H](O)C[C@H]1C(=O)NCC(=O)N[C@H](C(=O)N[C@@H](CO)C(=O)N[C@H](Cc1c(F)c(F)c(F)c(F)c1F)C(=O)N(CC(=O)N[C@@H](CCCNC(=N)N)C(=O)O)C1CCCCCC1)C1Cc2ccccc2C1` [Compound B10206, DArg-Arg-Pro-Hyp-Gly-Igl-Ser-Df5f-Nc7G-Arg], the Kb is 1.26 nM in assay [1] and 15.8 nM in assay [2] (setting [3]).

With `N=C(N)NCCC[C@@H](N)C(=O)N[C@@H](CCCNC(=N)N)C(=O)N1CCC[C@H]1C(=O)N1C[C@H](O)C[C@H]1C(=O)NCC(=O)N[C@H](C(=O)N[C@@H](CO)C(=O)N[C@H](Cc1c(F)c(F)c(F)c(F)c1F)C(=O)N(CC(=O)N[C@@H](CCCNC(=N)N)C(=O)O)C1CCCCC1)C1Cc2ccccc2C1` [Compound B10112, DArg-Arg-Pro-Hyp-Gly-Igl-Ser-Df5f-NchG-Arg], the “Uterus … as percent BK activity” value in assay [1] (rat uterus, agonist activity) is recorded as 21%. For the same compound, the Kb in assay [2] (setting [4]) was 25.1 nM.

Consider `N=C(N)NCCC[C@@H](N)C(=O)N[C@@H](CCCNC(=N)N)C(=O)N1CCC[C@H]1C(=O)N1C[C@H](O)C[C@H]1C(=O)NCC(=O)N[C@H](C(=O)N[C@@H](CO)C(=O)N[C@H](Cc1c(F)c(F)c(F)c(F)c1F)C(=O)N[C@@H](Cc1c(F)c(F)c(F)c(F)c1F)C(=O)N[C@@H](CCCNC(=N)N)C(=O)O)C1Cc2ccccc2C1` [Compound B10232, DArg-Arg-Pro-Hyp-Gly-Igl-Ser-Df5f-f5f-Arg], for which the values for the Kb in assay [1] and in assay [2] (setting [3]) were 7.94 nM and 20 nM, respectively.

As to `N=C(N)NCCC[C@@H](N)C(=O)N[C@@H](CCCNC(=N)N)C(=O)N1CCC[C@H]1C(=O)N1C[C@H](O)C[C@H]1C(=O)NCC(=O)N[C@@H](Cc1c(F)c(F)c(F)c(F)c1F)C(=O)N[C@@H](CO)C(=O)N[C@@H](C(=O)N1[C@H](C(=O)N[C@@H](CCCNC(=N)N)C(=O)O)C[C@@H]2CCCC[C@@H]21)C1Cc2ccccc2C1` [Compound B10210, DArg-Arg-Pro-Hyp-Gly-f5f-Ser-DIgl-Oic-Arg], in assay [2] (setting [3]), the Kb is 15.8 nM.

Consider `N=C(N)NCCC[C@H](NC(=O)[C@@H]1C[C@@H]2CCCC[C@@H]2N1C(=O)[C@@H](Cc1c(F)c(F)c(F)c(F)c1F)NC(=O)[C@H](CO)NC(=O)[C@@H](NC(=O)CNC(=O)[C@@H]1C[C@@H](O)CN1C(=O)[C@@H]1CCCN1C(=O)[C@H](CCCNC(=N)N)NC(=O)[C@@H](CCCNC(=N)N)NC(=O)CN(CCCNC(=N)N)CCCNC(=N)N)C1Cc2ccccc2C1)C(=O)O` [Compound B10156, Gun2-bApg-DArg-Arg-Pro-Hyp-Gly-Igl-Ser-Df5f-Oic-Arg], for which the Kb in assay [1] was 5.01 nM; in assay [2] (setting [3]), 12.6 nM.

In the case of `N=C(N)NCCC[C@H](NC(=O)[C@@H]1C[C@@H]2CCCC[C@@H]2N1C(=O)[C@@H](Cc1c(F)c(F)c(F)c(F)c1F)NC(=O)[C@H](CO)NC(=O)[C@@H](NC(=O)CNC(=O)[C@@H]1C[C@@H](O)CN1C(=O)[C@@H]1CCCN1C(=O)[C@H](CCCNC(=N)N)NC(=O)[C@@H](CCCNC(=N)N)NC(=O)[C@H](CCCCN)NC(=O)CCCCCCCCCCC(=O)N[C@@H](CCCCN)C(=O)N[C@H](CCCNC(=N)N)C(=O)N[C@@H](CCCNC(=N)N)C(=O)N1CCC[C@H]1C(=O)N1C[C@H](O)C[C@H]1C(=O)NCC(=O)N[C@H](C(=O)N[C@@H](CO)C(=O)N[C@H](Cc1c(F)c(F)c(F)c(F)c1F)C(=O)N1[C@H](C(=O)N[C@@H](CCCNC(=N)N)C(=O)O)C[C@@H]2CCCC[C@@H]21)C1Cc2ccccc2C1)C1Cc2ccccc2C1)C(=O)O` [Compound B10158, αDDD-(Lys-Darg-Arg-Pro-Hyp-Gly-Igl-Ser-Df5f-Oic-Arg)2], the Kb in assay [1] was 3.16 nM; in assay [2] (setting [3]), 10 nM.

For `N=C(N)NCCC[C@@H](N)C(=O)N[C@@H](CCCNC(=N)N)C(=O)N1CCC[C@H]1C(=O)N[C@H](C(=O)NCC(=O)N[C@H](C(=O)N[C@@H](CO)C(=O)N[C@H](Cc1c(F)c(F)c(F)c(F)c1F)C(=O)N1[C@H](C(=O)N[C@@H](CCCNC(=N)N)C(=O)O)C[C@@H]2CCCC[C@@H]21)C1Cc2ccccc2C1)C1Cc2ccccc2C1` [Compound B10214, DArg-Arg-Pro-Igl-Gly-Igl-Ser-Df5f-Oic-Arg], the values for the Kb in assay [1] and in assay [2] (setting [3]) were 6.31 nM and 7.94 nM, respectively.

Take `N=C(N)NCCC[C@@H](N)C(=O)N[C@@H](CCCNC(=N)N)C(=O)N1CCC[C@H]1C(=O)N1C[C@H](O)C[C@H]1C(=O)NCC(=O)N[C@@H](Cc1cccs1)C(=O)N[C@@H](CO)C(=O)N[C@H](Cc1c(F)c(F)c(F)c(F)c1F)C(=O)N(CC(=O)N[C@@H](CCCNC(=N)N)C(=O)O)C1CCCCC1` [Compound B10208, DArg-Arg-Pro-Hyp-Gly-Thi-Ser-Df5f-NchG-Arg]: the “Uterus … as percent BK activity” value in assay [1] (rat uterus, agonist activity) is 14.0%. In assay [2] (setting [4]), the Kb is 2 nM.

Consider `N=C(N)NCCC[C@H](NC(=O)[C@@H]1C[C@@H]2CCCC[C@@H]2N1C(=O)[C@@H](Cc1c(F)c(F)c(F)c(F)c1F)NC(=O)[C@H](CO)NC(=O)[C@H](Cc1cccs1)NC(=O)CNC(=O)[C@@H]1CCCN1C(=O)[C@@H]1CCCN1C(=O)[C@H](CCCNC(=N)N)NC(=O)[C@@H](CCCNC(=N)N)NC(=O)[C@H](CCCCN)NC(=O)CCCCCCCCCCC(=O)N[C@@H](CCCCN)C(=O)N[C@H](CCCNC(=N)N)C(=O)N[C@@H](CCCNC(=N)N)C(=O)N1CCC[C@H]1C(=O)N1CCC[C@H]1C(=O)NCC(=O)N[C@@H](Cc1cccs1)C(=O)N[C@@H](CO)C(=O)N[C@H](Cc1c(F)c(F)c(F)c(F)c1F)C(=O)N1[C@H](C(=O)N[C@@H](CCCNC(=N)N)C(=O)O)C[C@@H]2CCCC[C@@H]21)C(=O)O` [Compound B10118, αDDD-(Lys-DArg-Arg-Pro-Pro-Gly-Thi-Ser-Df5f-Oic-Arg)2], for which the values for the Kb in assay [1] and in assay [2] (setting [3]) were 7.94 nM and 5.01 nM, respectively.

Take `N=C(N)NCCC[C@@H](N)C(=O)N[C@@H](CCCNC(=N)N)C(=O)N1CCC[C@H]1C(=O)N1C[C@H](O)C[C@H]1C(=O)NCC(=O)N[C@@H](Cc1cccs1)C(=O)N[C@@H](CO)C(=O)N[C@H](Cc1c(F)c(F)c(F)c(F)c1F)C(=O)N[C@@H](Cc1c(F)c(F)c(F)c(F)c1F)C(=O)N[C@@H](CCCNC(=N)N)C(=O)O` [Compound B10166, DArg-Arg-Pro-Hyp-Gly-Thi-Ser-Df5f-f5f-Arg]: the values for the Kb in assay [1] and in assay [2] (setting [3]) were 7.94 nM and 10 nM, respectively.

The record behind these values is patent US5935932A, “Bradykinin antagonists containing pentafluorophenylalanine” (University Technology Corporation, priority 1998, dated 1999).
